According to patent EP4603105A1, “PHARMACEUTICAL COMPOSITION CONTAINING CYCLIC COMPOUND HAVING SELECTIVE KRAS INHIBITORY EFFECT AGAINST HRAS AND NRAS” (CHUGAI SEIYAKU KABUSHIKI KAISHA, priority 2022, dated 2024):
*1 amine or outer side, *2 acyl side, *3 side chain or, on linkers, in order; H or OH if unused. Where a SMILES comes first, the peptide text is derived from it. Bridges are numbered along the chain shown (N, C = ends). [ ]: non-standard residue; d: D form. The star is where a group is joined. hPhe(3-Cl-4-CF3) = N[C@@H](CCc1ccc(C(F)(F)F)c(Cl)c1)C(=O)O; NPrPhe(4-CF3) = CCCN[C@@H](Cc1ccc(C(F)(F)F)cc1)C(=O)O; X44 = Cc1ccc(C[C@@H](C(=O)[*:2])N(CC2CCC2)[*:1])cc1; NMeGly(cPent) = CN[C@H](C(=O)O)C1CCCC1; Pro(4S-Me) = C[C@@H]1CN[C@H](C(=O)O)C1; Gly(cPent) = N[C@H](C(=O)O)C1CCCC1; Hyp = O=C(O)[C@@H]1C[C@@H](O)CN1; NMeD = CN[C@@H](CC(=O)O)C(=O)O; NMeL = CN[C@@H](CC(C)C)C(=O)O; Morpholide = C1CN(*)CCO1; NMeA = CN[C@@H](C)C(=O)O; Ac5c = NC1(C(=O)O)CCCC1; Aze = O=C(O)[C@@H]1CCN1; Ac4c = NC1(C(=O)O)CCC1; Sar = CNCC(=O)O

Tested on: human lung cancer strain NCI-H441
Format: cell-based
Method: A test compound was dispensed into a U-bottom 384-well plate as 40 nL serially diluted dimethyl sulfoxide solutions using a liquid handler Echo (LABCYTE). […] This cell suspension was dispensed in an amount of 40 µL per well into a plate containing the test compound, and cultured at 37°C in a 5% carbon dioxide gas incubator. Four days later, 20 µL of CellTiter-Glo (registered trademark) (Promega) was added to each well and […] was measured. […]

IC50 [nM] | SMILES
15.2 | CCCN1C(=O)[C@@H]2CCN2C(=O)CN(C)C(=O)[C@H]([C@@H](C)CC)NC(=O)[C@H](CC(C)C)N(C)C(=O)C[C@@H](C(=O)N(C)C)NC(=O)[C@H](C2CCCC2)N(C)C(=O)C2(CCCC2)NC(=O)[C@@H]2CCCN2C(=O)[C@H](CCc2ccc(C(F)(F)F)c(Cl)c2)NC(=O)CN(C)C(=O)[C@@H]1Cc1ccc(C(F)(F)F)cc1 [PP0385] ([NMeL]I[Sar][Aze][NPrPhe(4-CF3)][Sar][hPhe(3-Cl-4-CF3)]P[Ac5c][NMeGly(cPent)]D-NMe2; lactam N-11)
7.4 | C#CCN1CC(=O)N(C)[C@H]2C/C=C\CCN(C2=O)[C@@H](Cc2ccc(C)cc2)C(=O)N(C)CC(=O)N[C@@H](CCc2ccc(C(F)(F)F)c(OC)c2)C(=O)N2C[C@H](OCC)C[C@H]2C(=O)NC2(CC(C)(C)C2)C(=O)N(C)[C@@H](C2CCCC2)C(=O)N(C)[C@H](C(=O)N(C)C)CC(=O)N(C)[C@@H](CC(C)C)C(=O)N[C@@H]([C@@H](C)CC)C1=O [PP2060]
0.7 | CCCN1C(=O)[C@@H]2CCN2C(=O)[C@H](C)N(C)C(=O)[C@H]([C@@H](C)CC)NC(=O)[C@H](CC(C)C)N(C)C(=O)C[C@@H](C(=O)N(C)C)N(C)C(=O)[C@H](C2CCCC2)N(C)C(=O)C2(CCC2)NC(=O)[C@@H]2C[C@@H](OCC)CN2C(=O)[C@H](CCc2ccc(C(F)(F)F)c(Cl)c2)NC(=O)CN(C)C(=O)[C@@H]1Cc1ccc(C(F)(F)F)cc1 [PP0439] ([NMeL]I[NMeA][Aze][NPrPhe(4-CF3)][Sar][hPhe(3-Cl-4-CF3)][Hyp](Et)[Ac4c][NMeGly(cPent)][NMeD]-NMe2; lactam N-11)
22.6 | CC[C@H](C)[C@@H]1NC(=O)[C@H](CC2CC2)N(C)C(=O)C[C@@H](C(=O)N(C)CC)N(C)C(=O)[C@H](C2CCCC2)N(C)C(=O)C2(CCC2)NC(=O)[C@@H]2C[C@H](C)CN2C(=O)[C@H](CCc2ccc(C(F)(F)F)c(OC)c2)NC(=O)CN(C)C(=O)[C@H](Cc2ccc(C)cc2)N2CC/C=C\C[C@@H](C2=O)N(C)C(=O)CN(C)C1=O [PP1897]
15.7 | CCCN(C)C(=O)[C@@H]1CC(=O)N(C)[C@@H](COCC)C(=O)N[C@@H]([C@@H](C)CC)C(=O)N(C)CC(=O)N(C)[C@H]2C/C=C\CCN(C2=O)[C@@H](Cc2ccc(C(F)(F)F)cc2)C(=O)N(C)CC(=O)N[C@@H](CCc2cc(F)c(C(F)(F)F)c(F)c2)C(=O)N2C[C@@H](C)C[C@H]2C(=O)NC2(CCC2)C(=O)N(C)[C@@H](C2CCCC2)C(=O)N1C [PP2002]
49.1 | CCC[C@H]1C(=O)N[C@@H]([C@@H](C)CC)C(=O)N(C)CC(=O)N(C)[C@H]2C/C=C\CCN(C2=O)[C@@H](Cc2ccc(C)cc2)C(=O)N(C)CC(=O)N[C@@H](CCc2ccc(C(F)(F)F)c(Cl)c2)C(=O)N2C[C@H](C)C[C@H]2C(=O)NC2(CCC2)C(=O)N(C)[C@@H](C2CCCC2)C(=O)N(C)[C@H](C(=O)N(C)CC)CC(=O)N1C [PP1850]
11.3 | CC[C@H](C)[C@@H]1NC(=O)[C@H](CC(C)C)N(C)C(=O)C[C@@H](C(=O)N2CCOCC2)N(C)C(=O)[C@H](C2CCCC2)N(C)C(=O)C2(CCCC2)NC(=O)[C@@H]2CCCN2C(=O)[C@H](CCc2ccc(C(F)(F)F)c(Cl)c2)NC(=O)CN(C)C(=O)[C@H](Cc2ccc(C)cc2)N(CC2CCC2)C(=O)[C@@H]2CCN2C(=O)[C@H](C)N(C)C1=O [PP0083] ([NMeL]I[NMeA][Aze][X44][Sar][hPhe(3-Cl-4-CF3)]P[Ac5c][NMeGly(cPent)][NMeD]-Morpholide; lactam N-11)

Further lines, the molecule ahead of its results:

SMILES | IC50 [nM]
CC[C@H](C)[C@@H]1NC(=O)[C@H](CC)N(C)C(=O)C[C@@H](C(=O)N(C)CC)N(C)C(=O)[C@H](C2CCCC2)N(C)C(=O)C2(CC(C)(C)C2)NC(=O)[C@@H]2C[C@@H](C)CN2C(=O)[C@H](CCc2cc(F)c(C(F)(F)F)c(F)c2)NC(=O)CN(C)C(=O)[C@H](Cc2ccc(C)cc2)N2CC/C=C\C[C@@H](C2=O)N(C)C(=O)CN(C)C1=O [PP1884] | 17.3
CC[C@H](C)[C@@H]1NC(=O)[C@H](CC(F)F)N(C)C(=O)C[C@@H](C(=O)N(C)C)N(C)C(=O)[C@H](C2CCCC2)N(C)C(=O)C2(CC(C)(C)C2)NC(=O)[C@@H]2C[C@H](C)CN2C(=O)[C@H](CCc2ccc(C(F)(F)F)c(OC)c2)NC(=O)CN(C)C(=O)[C@H](Cc2ccc(C)cc2)N2CC/C=C\C[C@@H](C2=O)N(C)C(=O)CN(C)C1=O [PP1875] | 7.7
CCO[C@@H]1C[C@H]2C(=O)NC3(CCC3)C(=O)N(C)[C@@H](C(CC)CC)C(=O)N(C)[C@H](C)CC(=O)N(C)[C@@H](CC3CCCC3)C(=O)N[C@@H]([C@@H](C)CC)C(=O)N(C)CC(=O)N(C)[C@H]3C/C=C\CCN(C3=O)[C@@H](Cc3ccc(F)cc3)C(=O)N(C)CC(=O)N[C@@H](CCc3cc(F)c(C(F)(F)F)c(F)c3)C(=O)N2C1 [PP1523] | 320
CCO[C@@H]1C[C@H]2C(=O)NC3(CCC3)C(=O)N(C)[C@@H](C3CCCC3)C(=O)N(C)[C@H](C(=O)N(C)CC)CC(=O)N(C)[C@@H](C(C)C)C(=O)N[C@@H]([C@@H](C)CC)C(=O)N(C)CC(=O)N(C)[C@H]3C/C=C\CCN(C3=O)[C@@H](Cc3ccc(C(F)(F)F)cc3)C(=O)N(C)CC(=O)N[C@@H](CCc3ccc(C(F)(F)F)c(OC)c3)C(=O)N2C1 [PP2019] | 4.5
CCO[C@@H]1C[C@H]2C(=O)NC3(CC(C)(C)C3)C(=O)N(C)[C@@H](C3CCCC3)C(=O)N(C)[C@H](C(=O)N(C)CC)CC(=O)N(C)[C@@H]([C@@H](C)OC)C(=O)N[C@@H]([C@@H](C)CC)C(=O)N(C)CC(=O)N(C)[C@H]3C/C=C\CCN(C3=O)[C@@H](Cc3ccc(C(F)(F)F)cc3)C(=O)N(C)CC(=O)N[C@@H](CCc3ccc(C(F)(F)F)c(Cl)c3)C(=O)N2C1 [PP3162] | 9.6
CC[C@H](C)[C@@H]1NC(=O)[C@H](CC2CC2)N(C)C(=O)C[C@@H](C(=O)N(C)CC)N(C)C(=O)[C@H](C2CCCC2)N(C)C(=O)C2(CCC2)NC(=O)[C@@H]2C[C@@H](C)CN2C(=O)[C@H](CCc2ccc(C(F)(F)F)c(OC)c2)NC(=O)CN(C)C(=O)[C@H](Cc2ccc(C)cc2)N2CC/C=C\C[C@@H](C2=O)N(C)C(=O)CN(C)C1=O [PP1900] | 24.7
CCCN1C(=O)[C@@H]2CCN2C(=O)[C@H](C)N(C)C(=O)[C@H]([C@@H](C)CC)NC(=O)[C@H](CC(C)C)N(C)C(=O)C[C@@H](C(=O)N2CCOCC2)N(C)C(=O)[C@H](C2CCCC2)N(C)C(=O)C2(CCCC2)NC(=O)[C@@H]2C[C@H](C)CN2C(=O)[C@H](CCc2ccc(C(F)(F)F)c(Cl)c2)NC(=O)CN(C)C(=O)[C@@H]1Cc1ccc(C(F)(F)F)cc1 [PP0455] ([NMeL]I[NMeA][Aze][NPrPhe(4-CF3)][Sar][hPhe(3-Cl-4-CF3)][Pro(4S-Me)][Ac5c][NMeGly(cPent)][NMeD]-Morpholide; lactam N-11) | 9.9
CCCN1C(=O)CN(C)C(=O)CN(C)C(=O)[C@H](C2CCCC2)NC(=O)[C@H](CC(C)C)N(C)C(=O)C[C@@H](C(=O)N2CCOCC2)N(C)C(=O)[C@H](C2CCCC2)N(C)C(=O)C2(CCCC2)NC(=O)[C@@H]2CCCN2C(=O)[C@H](CCc2ccc(C(F)(F)F)c(Cl)c2)NC(=O)CN(C)C(=O)[C@@H]1Cc1ccc(C(F)(F)F)cc1 [PP0251] ([NMeL][Gly(cPent)][Sar][Sar][NPrPhe(4-CF3)][Sar][hPhe(3-Cl-4-CF3)]P[Ac5c][NMeGly(cPent)][NMeD]-Morpholide; lactam N-11) | 8.4
